Drawing on US12371428B2 (Exelixis, Inc., priority 2019, dated 2025), this text covers IC50 for 17 compounds.

Assay [1] deals with Human MER (residues 528-999) (Homo sapiens (Human), UniProt Q12866). As to the kind of experiment: Human Mer kinase assay, HTRF KinEase (Example C-2). The following applies: protocol of Example C-2 (other compounds). Format: biochemical. Put shortly: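 HTRF KinEase TK assay with MER 528-999 (1 ng/well) in enzymatic buffer plus 5 mM MgCl2 and 1 mM DTT, biotinylated peptide substrate and ATP at Km (40 μM), 3% DMSO final, 60 min at room temperature. Stopped with EDTA detection mix (SA-XL665, TK antibody-Eu3+), read at 665/620 nm after 60 min; IC50 from 10-point 4-parameter fit, normalized to DMSO and 1 μM reference.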
On the technique in general: In TR-FRET formats the signal depends on donor and acceptor labels being close together.

Assay [2] addresses Met (phospho-Met, HGF-stimulated PC-3 prostate cancer cells) (Homo sapiens (Human), UniProt P08581). As to the kind of experiment: Met autophosphorylation ELISA in PC-3 cells (Example F). Format: cell-based. The settings on record: cellular activity; Met autophosphorylation ELISA in PC-3 cells; read-out: c-Met IC50. In outline:
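Compounds were tested on HGF-stimulated PC-3 cells. After 24 h culture and 3 h serum starvation, cells got compound for 1 h and 100 ng/mL HGF for 10 min, and Met tyrosine phosphorylation was measured by ELISA.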
(In general: An ELISA detects its analyte on a solid surface through an enzyme-linked reagent.)

Chain of Human MER (residues 528-999) (Q12866 528-999): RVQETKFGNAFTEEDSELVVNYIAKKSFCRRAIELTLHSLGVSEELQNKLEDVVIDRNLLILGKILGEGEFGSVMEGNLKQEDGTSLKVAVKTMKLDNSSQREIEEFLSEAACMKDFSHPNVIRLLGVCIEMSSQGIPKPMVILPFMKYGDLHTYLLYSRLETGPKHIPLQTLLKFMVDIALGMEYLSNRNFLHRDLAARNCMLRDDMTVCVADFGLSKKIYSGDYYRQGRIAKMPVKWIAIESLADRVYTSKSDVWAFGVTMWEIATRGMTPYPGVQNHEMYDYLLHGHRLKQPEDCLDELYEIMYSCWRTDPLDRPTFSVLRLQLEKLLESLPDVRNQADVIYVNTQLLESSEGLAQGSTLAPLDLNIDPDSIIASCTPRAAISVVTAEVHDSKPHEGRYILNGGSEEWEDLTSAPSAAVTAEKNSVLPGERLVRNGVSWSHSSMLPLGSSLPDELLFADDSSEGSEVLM
Chain of Met (phospho-Met, HGF-stimulated PC-3 prostate cancer cells) (P08581 25-1390): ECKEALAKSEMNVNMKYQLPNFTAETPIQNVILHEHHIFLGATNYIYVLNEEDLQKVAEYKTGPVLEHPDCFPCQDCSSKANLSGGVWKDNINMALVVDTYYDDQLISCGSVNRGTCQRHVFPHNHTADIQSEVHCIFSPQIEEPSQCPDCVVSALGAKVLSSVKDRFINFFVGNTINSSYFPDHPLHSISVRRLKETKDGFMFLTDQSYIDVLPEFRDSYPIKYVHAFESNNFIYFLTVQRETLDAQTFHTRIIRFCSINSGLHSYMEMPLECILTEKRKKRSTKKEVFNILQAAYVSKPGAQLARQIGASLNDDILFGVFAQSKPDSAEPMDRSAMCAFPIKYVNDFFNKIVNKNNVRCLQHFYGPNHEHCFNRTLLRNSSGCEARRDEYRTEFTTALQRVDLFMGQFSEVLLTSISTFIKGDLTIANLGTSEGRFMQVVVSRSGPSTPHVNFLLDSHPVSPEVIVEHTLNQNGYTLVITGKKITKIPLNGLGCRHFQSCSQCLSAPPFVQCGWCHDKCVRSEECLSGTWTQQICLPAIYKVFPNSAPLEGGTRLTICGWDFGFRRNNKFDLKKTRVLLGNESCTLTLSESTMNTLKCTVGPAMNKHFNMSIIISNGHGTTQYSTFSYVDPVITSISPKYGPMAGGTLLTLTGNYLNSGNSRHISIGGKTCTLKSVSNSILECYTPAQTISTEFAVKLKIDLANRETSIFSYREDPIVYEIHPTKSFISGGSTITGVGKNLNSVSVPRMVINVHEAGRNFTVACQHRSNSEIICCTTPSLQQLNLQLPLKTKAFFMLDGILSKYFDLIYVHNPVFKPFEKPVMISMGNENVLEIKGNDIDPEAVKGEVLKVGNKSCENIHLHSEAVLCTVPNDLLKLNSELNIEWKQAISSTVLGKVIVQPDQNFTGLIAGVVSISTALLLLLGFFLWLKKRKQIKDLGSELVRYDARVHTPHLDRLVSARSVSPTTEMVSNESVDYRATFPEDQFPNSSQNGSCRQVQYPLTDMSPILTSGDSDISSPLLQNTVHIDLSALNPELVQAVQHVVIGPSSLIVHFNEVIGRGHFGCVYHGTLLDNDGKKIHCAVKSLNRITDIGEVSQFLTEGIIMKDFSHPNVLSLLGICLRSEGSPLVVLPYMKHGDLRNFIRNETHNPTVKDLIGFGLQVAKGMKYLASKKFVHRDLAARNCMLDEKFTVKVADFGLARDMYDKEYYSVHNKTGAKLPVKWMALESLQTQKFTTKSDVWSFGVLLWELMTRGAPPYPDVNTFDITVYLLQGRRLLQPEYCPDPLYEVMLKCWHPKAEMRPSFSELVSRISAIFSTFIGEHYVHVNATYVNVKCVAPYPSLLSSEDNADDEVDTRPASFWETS

For `COc1cc2nccc(Oc3ccc(NC(=O)c4cnc(C)n(-c5ccc(F)cc5)c4=O)cc3F)c2nc1OC` [Compound 97, N-[4-[(6,7-Dimethoxy-1,5-naphthyridin-4-yl)oxy]-3-fluorophenyl]-1-(4-fluorophenyl)-2-methyl-6-oxopyrimidine-5-carboxamide], the concentration for half-maximal inhibition (IC50) in assay [1] and in assay [2] was under 0.1 µM throughout.
Consider `COc1cc2nccc(Oc3ccc(NC(=O)c4c(C)ncn(-c5ccc(F)cc5)c4=O)cc3F)c2nc1OC` [Compound 98, N-[4-[(6,7-Dimethoxy-1,5-naphthyridin-4-yl)oxy]-3-fluorophenyl]-1-(4-fluorophenyl)-4-methyl-6-oxopyrimidine-5-carboxamide], for which the IC50 in assay [1] and in assay [2] was under 0.1 µM throughout.
In the case of `COc1cc2nccc(Oc3ccc(NC(=O)c4cncc(-c5ccc(F)cc5)c4O)cc3)c2nc1OC` [Compound 118, N-[4-[(6,7-Dimethoxy-1,5-naphthyridin-4-yl)oxy]phenyl]-5-(4-fluorophenyl)-4-hydroxypyridine-3-carboxamide], the 50% inhibitory concentration (IC50) in assay [1] and in assay [2] was under 0.1 µM each time.
For `COc1cc2nccc(Oc3ccc(NC(=O)c4cn(C(C)C)c(C)c(-c5ccc(F)cc5)c4=O)cc3)c2nc1OC` [Compound 115, N-[4-[(6,7-Dimethoxy-1,5-naphthyridin-4-yl)oxy]phenyl]-5-(4-fluorophenyl)-6-methyl-4-oxo-1-propan-2-ylpyridine-3-carboxamide], the half-inhibitory concentration (IC50) in assay [1] and in assay [2] was under 0.1 µM in each case.
For `CCn1cc(C(=O)Nc2ccc(Oc3ccnc4cc(OC)ccc34)c(F)c2)c(=O)c(-c2ccc(F)cc2)c1C` [Compound 107, 1-Ethyl-N-[3-fluoro-4-(7-methoxyquinolin-4-yl)oxyphenyl]-5-(4-fluorophenyl)-6-methyl-4-oxopyridine-3-carboxamide], the figures for the 50% inhibitory concentration (IC50) in assay [1] and in assay [2] were under 0.1 µM and 0.1 to 0.3 µM, respectively.
For `COc1ccc2c(Oc3ccc(NC(=O)c4cnc(C)c(-c5ccc(F)cc5)c4O)cc3F)ccnc2c1` [Compound 105, N-[3-Fluoro-4-(7-methoxyquinolin-4-yl)oxyphenyl]-5-(4-fluorophenyl)-4-hydroxy-6-methylpyridine-3-carboxamide], the half-maximal inhibitory concentration (IC50) in assay [1] and in assay [2] was under 0.1 µM each time.
Turning to `COc1cc2nccc(Oc3ccc(NC(=O)c4c(C)nc(C)n(-c5ccc(F)cc5)c4=O)cc3F)c2nc1OC` [Compound 101, N-[4-[(6,7-Dimethoxy-1,5-naphthyridin-4-yl)oxy]-3-fluorophenyl]-1-(4-fluorophenyl)-2,4-dimethyl-6-oxopyrimidine-5-carboxamide], the IC50 in assay [1] and in assay [2] was under 0.1 µM in each case.
For the compound `CCn1cc(C(=O)Nc2ccc(Oc3ccnc4cc(OC)c(OC)nc34)c(F)c2)c(=O)c(-c2ccc(F)cc2)c1` [Compound 116, N-[4-[(6,7-Dimethoxy-1,5-naphthyridin-4-yl)oxy]-3-fluorophenyl]-1-ethyl-5-(4-fluorophenyl)-4-oxopyridine-3-carboxamide], the concentration for half-maximal inhibition (IC50) in assay [1] and in assay [2] was under 0.1 µM in each case.
Consider `COc1cnc2c(Oc3ccc(NC(=O)c4cn(C)c(C)c(-c5ccc(F)cc5)c4=O)cc3)ccnc2c1` [Compound 111, 5-(4-Fluorophenyl)-N-[4-[(7-methoxy-1,5-naphthyridin-4-yl)oxy]phenyl]-1,6-dimethyl-4-oxopyridine-3-carboxamide], for which the values for the half-maximal inhibitory concentration (IC50) in assay [1] and in assay [2] were under 0.1 µM and 0.1 to 0.3 µM, respectively.
In the same order, the values of `COc1ccc2c(Oc3ccc(NC(=O)c4cn(C(C)C)c(C)c(-c5ccc(F)cc5)c4=O)cc3F)ccnc2c1` [Compound 106, N-[3-Fluoro-4-(7-methoxyquinolin-4-yl)oxyphenyl]-5-(4-fluorophenyl)-6-methyl-4-oxo-1-propan-2-ylpyridine-3-carboxamide] are under 0.1 µM and under 0.1 µM.
For the compound `COc1cc2nccc(Oc3ccc(NC(=O)c4c[nH]c(=O)n(-c5ccc(F)cc5)c4=O)cc3F)c2nc1OC` [Compound 102, N-[4-[(6,7-Dimethoxy-1,5-naphthyridin-4-yl)oxy]-3-fluorophenyl]-3-(4-fluorophenyl)-2,4-dioxo-1H-pyrimidine-5-carboxamide], the IC50 in assay [1] and in assay [2] was under 0.1 µM throughout.
On to `COc1ccc2nccc(Oc3ccc(NC(=O)c4cn(C)c(C)c(-c5ccc(F)cc5)c4=O)cc3F)c2n1` [Compound 113, N-[3-Fluoro-4-[(6-methoxy-1,5-naphthyridin-4-yl)oxy]phenyl]-5-(4-fluorophenyl)-1,6-dimethyl-4-oxopyridine-3-carboxamide], for which the half-inhibitory concentration (IC50) in assay [1] and in assay [2] was under 0.1 µM each time.
As to `COc1cc2nccc(Oc3ccc(NC(=O)c4cn(CCO)cc(-c5ccc(F)cc5)c4=O)cc3F)c2nc1OC` [Compound 117, N-[4-[(6,7-Dimethoxy-1,5-naphthyridin-4-yl)oxy]-3-fluorophenyl]-5-(4-fluorophenyl)-1-(2-hydroxyethyl)-4-oxopyridine-3-carboxamide], the IC50 in assay [1] and in assay [2] was under 0.1 µM in each case.
For `COc1ccc2c(Oc3ccc(NC(=O)c4cnc(C)c(-c5ccc(F)cc5)c4O)cc3)ccnc2c1` [Compound 108, 5-(4-Fluorophenyl)-4-hydroxy-N-[4-(7-methoxyquinolin-4-yl)oxyphenyl]-6-methylpyridine-3-carboxamide], the concentration for half-maximal inhibition (IC50) in assay [1] was under 0.1 µM; in assay [2], 0.1 to 0.3 µM.
On to `COc1cnc2c(Oc3ccc(NC(=O)c4cn(C)cc(-c5ccc(F)cc5)c4=O)cc3F)ccnc2c1` [Compound 112, N-[3-Fluoro-4-[(7-methoxy-1,5-naphthyridin-4-yl)oxy]phenyl]-5-(4-fluorophenyl)-1-methyl-4-oxopyridine-3-carboxamide], for which the concentration for half-maximal inhibition (IC50) in assay [1] and in assay [2] was under 0.1 µM throughout.
For `COc1cc2nccc(Oc3ccc(NC(=O)c4cnc(N(C)C)n(-c5ccc(F)cc5)c4=O)cc3F)c2nc1OC` [Compound 100, N-[4-[(6,7-Dimethoxy-1,5-naphthyridin-4-yl)oxy]-3-fluorophenyl]-2-(dimethylamino)-1-(4-fluorophenyl)-6-oxopyrimidine-5-carboxamide], the IC50 in assay [1] and in assay [2] was under 0.1 µM throughout.
Consider `COc1cc2nccc(Oc3ccc(NC(=O)c4cnc(C)c(-c5ccc(F)cc5)c4O)cc3F)c2cc1OC` [Compound 109, N-[4-(6,7-Dimethoxyquinolin-4-yl)oxy-3-fluorophenyl]-5-(4-fluorophenyl)-4-hydroxy-6-methylpyridine-3-carboxamide], for which the IC50 in assay [1] and in assay [2] was under 0.1 µM in each case.

As usually defined, the IC50 is the concentration that inhibits the measured activity by half.
